From ChEMBL document CHEMBL1287680, “C-11 diamino cryptolepine derivatives NSC748392, NSC748393, and NSC748394: anticancer profile and G-quadruplex stabilization” (Bioorg Med Chem Lett, 2010)

Columns and labels:
[1] = tested on: SNB-75; assay: cells; conditions: Homo sapiens
Description: Anticancer activity against human SNB75 cells

[2] = tested on: BT-549; assay: cells; conditions: Homo sapiens
Description: Anticancer activity against human BT549 cells

[3] = tested on: NCI-H460; assay: cells; conditions: Homo sapiens
Description: Anticancer activity against human NCI-H460 cells

[4] = tested on: CCRF-CEM; assay: cells; conditions: Homo sapiens
Description: Anticancer activity against human CCRF-CEM cells

[5] = tested on: DU-145; assay: cells; conditions: Homo sapiens
Description: Anticancer activity against human DU145 cells

[6] = tested on: SK-MEL-28; assay: cells; conditions: Homo sapiens
Description: Anticancer activity against human SK-MEL-28 cells

[7] = tested on: LOX IMVI; assay: cells; conditions: Homo sapiens
Description: Anticancer activity against human LOXIMVI cells

[8] = tested on: U-251; assay: cells; conditions: Homo sapiens
Description: Anticancer activity against human U251 cells

[9] = tested on: Nucleic Acid; conditions: Homo sapiens
Description: Binding affinity to human duplex DNA assessed as change in melting temperature by FRET-melting assay

[10] = tested on: COLO 205; assay: cells; conditions: Homo sapiens
Description: Anticancer activity against human COLO205 cells

[11] = tested on: MDA-MB-231; assay: cells; conditions: Homo sapiens
Description: Anticancer activity against human MDA-MB-231 cells

[12] = tested on: NCI-H522; assay: cells; conditions: Homo sapiens
Description: Anticancer activity against human NCI-H522 cells

[13] = tested on: HT-29; assay: cells; conditions: Homo sapiens
Description: Anticancer activity against human HT-29 cells

[14] = tested on: SN12C; assay: cells; conditions: Homo sapiens
Description: Anticancer activity against human SN12C cells

[15] = tested on: HOP-62; assay: cells; conditions: Homo sapiens
Description: Anticancer activity against human HOP62 cells

[16] = tested on: HL-60(TB); assay: cells; conditions: Homo sapiens
Description: Anticancer activity against human HL-60(TB) cells

[17] = tested on: OVCAR-4; assay: cells; conditions: Homo sapiens
Description: Anticancer activity against human OVCAR4 cells

[18] = tested on: OVCAR-3; assay: cells; conditions: Homo sapiens
Description: Anticancer activity against human OVCAR-3 cells

[19] = tested on: HCT-116; assay: cells; conditions: Homo sapiens
Description: Anticancer activity against human HCT116 cells

[20] = tested on: K562; assay: cells; conditions: Homo sapiens
Description: Anticancer activity against human K562 cells

[21] = tested on: 786-0; assay: cells; conditions: Homo sapiens
Description: Anticancer activity against human 786-0 cells

[22] = physchem
Description: Dissociation constant, pKa of the compound by UV-visible spectroscopy

[23] = tested on: HCC 2998; assay: cells; conditions: Homo sapiens
Description: Anticancer activity against human HCC2998 cells

[24] = tested on: UACC-62; assay: cells; conditions: Homo sapiens
Description: Anticancer activity against human UACC62 cells

[25] = tested on: SK-MEL-5; assay: cells; conditions: Homo sapiens
Description: Anticancer activity against human SK-MEL-5 cells

[26] = tested on: SW-620; assay: cells; conditions: Homo sapiens
Description: Anticancer activity against human SW620 cells

[27] = tested on: MCF7; assay: cells; conditions: Homo sapiens
Description: Anticancer activity against human MCF7 cells

[28] = tested on: IGROV-1; assay: cells; conditions: Homo sapiens
Description: Anticancer activity against human IGROV1 cells

[29] = tested on: MOLT-4; assay: cells; conditions: Homo sapiens
Description: Anticancer activity against human MOLT4 cells

[30] = tested on: A498; assay: cells; conditions: Homo sapiens
Description: Anticancer activity against human A498 cells

SMILES: C[n+]1c2ccccc2c(NC2CCNCC2)c2[nH]c3ccccc3c21.[Cl-]
- GI50 ([1]; SNB-75, read-out: pGI50 (converted)): 1.38 µM
- CC50 ([1]; SNB-75, read-out: pLC50 (converted)): 24.5 µM
- TGI ([1]; SNB-75, read-out: pTGI): 5.37 µM
- GI50 ([2]; BT-549, read-out: pGI50 (converted)): 2.75 µM
- CC50 ([2]; BT-549, read-out: pLC50 (converted)): 57.5 µM
- TGI ([2]; BT-549, read-out: pTGI): 16.6 µM
- GI50 ([3]; NCI-H460, read-out: pGI50 (converted)): 0.245 µM
- CC50 ([3]; NCI-H460, read-out: pLC50 (converted)): 22.4 µM
- TGI ([3]; NCI-H460, read-out: pTGI): 1.62 µM
- GI50 ([4]; read-out: pGI50 (converted)): 0.457 µM
- CC50 ([4]; read-out: pLC50 (converted)): 52.5 µM
- TGI ([4]; read-out: pTGI): 3.02 µM
- GI50 ([5]; DU-145, read-out: pGI50 (converted)): 0.204 µM
- CC50 ([5]; DU-145, read-out: pLC50 (converted)): > 100 µM
- TGI ([5]; DU-145, read-out: pTGI): 10.2 µM
- GI50 ([6]; SK-MEL-28, read-out: pGI50 (converted)): 1.05 µM
- CC50 ([6]; SK-MEL-28, read-out: pLC50 (converted)): 10.5 µM
- TGI ([6]; SK-MEL-28, read-out: pTGI): 3.24 µM
- GI50 ([7]; read-out: pGI50 (converted)): 1.7 µM
- CC50 ([7]; read-out: pLC50 (converted)): 49 µM
- TGI ([7]; read-out: pTGI): 5.25 µM
- GI50 ([8]; U-251, read-out: pGI50 (converted)): 0.282 µM
- CC50 ([8]; U-251, read-out: pLC50 (converted)): > 100 µM
- TGI ([8]; U-251, read-out: pTGI): 2.95 µM
- ΔTm [9]: 15.1 °C
- GI50 ([10]; COLO 205, read-out: pGI50 (converted)): 0.339 µM
- CC50 ([10]; COLO 205, read-out: pLC50 (converted)): 14.5 µM
- TGI ([10]; COLO 205, read-out: pTGI): 2.4 µM
- GI50 ([11]; MDA-MB-231, read-out: pGI50 (converted)): 1.1 µM
- CC50 ([11]; MDA-MB-231, read-out: pLC50 (converted)): 52.5 µM
- TGI ([11]; MDA-MB-231, read-out: pTGI): 9.77 µM
- GI50 ([12]; NCI-H522, read-out: pGI50 (converted)): 0.123 µM
- CC50 ([12]; NCI-H522, read-out: pLC50 (converted)): 3.31 µM
- TGI ([12]; NCI-H522, read-out: pTGI): 0.692 µM
- GI50 ([13]; HT-29, read-out: pGI50 (converted)): 0.209 µM
- CC50 ([13]; HT-29, read-out: pLC50 (converted)): 70.8 µM
- TGI ([13]; HT-29, read-out: pTGI): 10.2 µM
- GI50 ([14]; read-out: pGI50 (converted)): 0.0295 µM
- CC50 ([14]; read-out: pLC50 (converted)): > 100 µM
- TGI ([14]; read-out: pTGI): 0.316 µM
- GI50 ([15]; HOP-62, read-out: pGI50 (converted)): 0.525 µM
- CC50 ([15]; HOP-62, read-out: pLC50 (converted)): 30.9 µM
- TGI ([15]; HOP-62, read-out: pTGI): 5.62 µM
- GI50 ([16]; HL-60, read-out: pGI50 (converted)): 2.19 µM
- CC50 ([16]; HL-60, read-out: pLC50 (converted)): > 100 µM
- TGI ([16]; HL-60, read-out: pTGI): > 100 µM
- GI50 ([17]; OVCAR-4, read-out: pGI50 (converted)): 0.316 µM
- CC50 ([17]; OVCAR-4, read-out: pLC50 (converted)): 36.3 µM
- TGI ([17]; OVCAR-4, read-out: pTGI): 3.8 µM
- GI50 ([18]; OVCAR-3, read-out: pGI50 (converted)): 1.45 µM
- CC50 ([18]; OVCAR-3, read-out: pLC50 (converted)): 95.5 µM
- TGI ([18]; OVCAR-3, read-out: pTGI): 9.55 µM
- GI50 ([19]; HCT-116, read-out: pGI50 (converted)): 0.813 µM
- CC50 ([19]; HCT-116, read-out: pLC50 (converted)): > 100 µM
- TGI ([19]; HCT-116, read-out: pTGI): 4.9 µM
- GI50 ([20]; K562, read-out: pGI50 (converted)): 0.295 µM
- CC50 ([20]; K562, read-out: pLC50 (converted)): > 100 µM
- GI50 ([21]; 786-0, read-out: pGI50 (converted)): 3.47 µM
- CC50 ([21]; 786-0, read-out: pLC50 (converted)): > 100 µM
- TGI ([21]; 786-0, read-out: pTGI): 18.2 µM
- pKa [22]: 11.8
- GI50 ([23]; HCC 2998, read-out: pGI50 (converted)): 0.324 µM
- CC50 ([23]; HCC 2998, read-out: pLC50 (converted)): 5.25 µM
- TGI ([23]; HCC 2998, read-out: pTGI): 1.7 µM
- GI50 ([24]; UACC-62, read-out: pGI50 (converted)): 0.2 µM
- CC50 ([24]; UACC-62, read-out: pLC50 (converted)): 3.63 µM
- TGI ([24]; UACC-62, read-out: pTGI): 0.933 µM
- GI50 ([25]; SK-MEL-5, read-out: pGI50 (converted)): 0.302 µM
- CC50 ([25]; SK-MEL-5, read-out: pLC50 (converted)): 4.68 µM
- TGI ([25]; SK-MEL-5, read-out: pTGI): 1.32 µM
- GI50 ([26]; SW-620, read-out: pGI50 (converted)): 1.45 µM
- CC50 ([26]; SW-620, read-out: pLC50 (converted)): > 100 µM
- TGI ([26]; SW-620, read-out: pTGI): 10.7 µM
- GI50 ([27]; MCF7, read-out: pGI50 (converted)): 0.224 µM
- CC50 ([27]; MCF7, read-out: pLC50 (converted)): > 100 µM
- TGI ([27]; MCF7, read-out: pTGI): 2.14 µM
- GI50 ([28]; IGROV-1, read-out: pGI50 (converted)): 0.363 µM
- CC50 ([28]; IGROV-1, read-out: pLC50 (converted)): > 100 µM
- TGI ([28]; IGROV-1, read-out: pTGI): 5.01 µM
- GI50 ([29]; MOLT-4, read-out: pGI50 (converted)): 0.138 µM
- CC50 ([29]; MOLT-4, read-out: pLC50 (converted)): > 100 µM
- TGI ([29]; MOLT-4, read-out: pTGI): > 100 µM
- GI50 ([30]; A498, read-out: pGI50 (converted)): 1.62 µM
- CC50 ([30]; A498, read-out: pLC50 (converted)): 26.3 µM
- TGI ([30]; A498, read-out: pTGI): 5.13 µM
